From publication PMC8068801, “Novel Benzenesulfonate Scaffolds with a High Anticancer Activity and G2/M Cell Cycle Arrest” (Cancers, 2021)

Legend:
Assay type in all cases: cell-based, human
K562 cells [1] = assay: Cell cycle assay (Muse Cell-Cycle Kit), K562; conditions: 24 h
Procedure: (§1) The K562, U-251 and NHDF cells were seeded in 3 cm Petri dishes (Nunc) at a density of 250,000 cells per well and incubated under standard conditions at 37 °C for 24 h. […] After a 24 h treatment, the assays were performed using a Muse Cell-Cycle Kit (Millipore, Burlington, MA, USA) according to the supplier’s instructions. Briefly, the cells were collected, washed with cold PBS and centrifuged at 300 g for 5 min. Afterwards, the cells were fixed in ice cold 70% ethanol and stored at −20 °C overnight. The next day, the cells were washed with cold PBS, centrifuged and resuspended in 200 μL of the Muse™ Cell Cycle Reagent. The samples were incubated for 30 min at room temperature in the dark. After staining, the cellular subpopulation values in the individual cell cycle phases were estimated using a cell cycle analysis using a Muse Cell Analyzer (Millipore). The experiments were performed at least four times.

U-251 cells [2] = assay: Cell cycle assay (Muse Cell-Cycle Kit), U-251; conditions: 24 h
Procedure: as §1

U-251 cells [3] = assay: Immunoblotting with densitometry, U-251; conditions: for Cleavage product of caspase-9 (Western blot) / PARP/Reference 89 kDa, densitometric intensity ratio / caspase-9/Reference 37-35 kDa, densitometric intensity ratio / BID/Reference 22 kDa, densitometric intensity ratio / Cathepsin b/Reference 44 kDa, densitometric intensity ratio / HIF-1α/Reference 120 kDa, densitometric intensity ratio / PARP/Reference 116 kDa, densitometric intensity ratio / caspase-9/Reference 47 kDa, densitometric intensity ratio / cdc2/Reference 34 kDa, densitometric intensity ratio / cyclin E1/Reference 48 kDa, densitometric intensity ratio / p21/Reference 21 kDa, densitometric intensity ratio / p53/Reference 53 kDa, densitometric intensity ratio / Cathepsin b/Reference 27 kDa, densitometric intensity ratio / Cathepsin b/Reference 22 kDa, densitometric intensity ratio: 24 h; for PARP/Reference 89 kDa, densitometric intensity ratio / caspase-9/Reference 37-35 kDa, densitometric intensity ratio: control 0.330; for BID/Reference 22 kDa, densitometric intensity ratio / Cathepsin b/Reference 44 kDa, densitometric intensity ratio / HIF-1α/Reference 120 kDa, densitometric intensity ratio / PARP/Reference 116 kDa, densitometric intensity ratio / caspase-9/Reference 47 kDa, densitometric intensity ratio / cdc2/Reference 34 kDa, densitometric intensity ratio / cyclin E1/Reference 48 kDa, densitometric intensity ratio / p21/Reference 21 kDa, densitometric intensity ratio / p53/Reference 53 kDa, densitometric intensity ratio: control 1.000; for Cathepsin b/Reference 27 kDa, densitometric intensity ratio: control 2.837; for Cathepsin b/Reference 22 kDa, densitometric intensity ratio: control […]
Procedure: The K562 and U-251 cells were seeded in 3 cm Petri dishes (Nunc) at a density of 500,000 cells per well and incubated overnight. […] Next, the cell pellets were resuspended in an RIPA buffer containing a Halt Protease Inhibitor Cocktail and a Halt Phosphatase Inhibitor Cocktail along with 0.5 M EDTA (all from Thermo Scientific, Waltham, MA, USA) and lysed on ice for 20 min. Then, the obtained lysates were sonicated and centrifuged at 10,000 rpm for 10 min at 4 °C. The supernatants were collected for further analysis. The protein concentration was measured using a Micro BCA™ Protein Assay Kit (Thermo Scientific) according to the manufacturer’s instructions. Equal amounts of the proteins (16 μg) were electrophoresed on SDS-Page gels and transferred onto nitrocellulose membranes. The membranes were blocked in 5% non-fat milk prepared in TPBS (PBS containing 0.1% Tween-20) for 1 h. After blocking, the membranes were incubated with the specific primary antibodies (all from Cell Signaling) at a 1:1000 dilution—cyclin E, cdc2, PARP, AIF, BID, p53, p21^Waf1/Cip1, HIF-1α, cathepsin B and caspase-9—and at a 1:2000 dilution for the reference proteins—vinculin, β-actin and GAPDH—overnight at 4 °C. The next day, the membranes were washed in TPBS and incubated with horseradish peroxidase (HRP)-conjugated secondary antibodies for 1 h at room temperature. Lastly, the membranes were washed in TPBS and incubated with a SuperSignal™ West Pico Chemiluminescent Substrate (Thermo Scientific). The chemiluminescence signals were captured using a ChemiDoc™ XRS + System (Biorad). The experiments were performed at least four to five times. The densitometric analysis was conducted using ImageJ software (Wayne Rasband, National Institutes of Health, Bethesda, MD, USA).
The band intensity of tested proteins (p53, cyclin E1, cdc2, p21, HIF-1α, cathepsin b, PARP, caspase-9, BID, AIF) were analyzed by densitometry readings/intensity ratio, using ImageJ software (NIH) and were normalized to the corresponding reference proteins (GAPDH, vinculin or β-actin) value.
The densitometric readings/intensity ratio data from four/five independent experiments (compared to control): […]
p53/ Refer- p21/ Refer- cdc2/ Refer- Cyclin E1/ HIF-1α/ Cathepsin b/Reference ence ence ence Reference Reference
PARP/Reference BID/ Reference Caspase-9/Reference […]

K562 cells [4] = assay: Annexin V binding (apoptosis) assay, K562; conditions: K562, 5 µM, 48 h; 5.56% in the control cells
Procedure: The K562, U-251 and NHDF cells were seeded in 3 cm Petri dishes (Nunc) at a density of 250,000 cells per well and incubated at 37 °C for 24 h. Then, the medium was removed, and freshly prepared solutions of the tested compounds, BS1 and BS4 (two to three times the IC50 value), were added. After a 48 h incubation, the assays were performed using a FITC Annexin V Apoptosis Detection KIT with 7-AAD (Bio-Legend) according to the manufacturer’s instructions. Briefly, the cells were collected, washed twice with cold PBS and centrifuged at 300 g for 5 min. Next, the cells were resuspended in a 100 µL Annexin V Binding Buffer and incubated for 15 min at room temperature in the dark with 5 µL of FITC Annexin V and 5 µL 7-AAD Viability Staining Solution. After immunostaining, the number of events for live, early and late apoptotic cells were determined using a Muse Cell Analyzer. The experiments were performed at least four times.

HCT 116 p53^+/+ cells = assay: MTS cytotoxicity assay, HCT 116 p53+/+; conditions: for IC50: Homo sapiens, HCT 116 p53^+/+, 72 h incubation, MTS; for Selectivity index, HCT 116 p53+/+: NHDF vs HCT 116 p53+/+
Description: M. Rusin from the Maria Sklodowska-Curie Memorial Cancer Centre and Institute of Oncology in Gliwice, Poland. […] G. Kramer-Marek from the Institute of Cancer Research in London, United Kingdom. The human suspension chronic myelogenous leukemia cell line K562 and pancreas ductal adenocarcinoma cell line PANC-1 were purchased from Sigma-Aldrich (St. Louis, MO, USA), while the normal human dermal fibroblasts cell line NHDF were purchased from PromoCell. […] Each medium contained a combination of two antibiotics: penicillin and streptomycin (1% v/v; Gibco). All of these cell lines were grown under standard conditions at 37 °C with a 5% CO2 humidified atmosphere. Moreover, all of the cell lines were routinely tested for mycoplasma using the PCR technique with specific Mycoplasma primers to confirm that there was no contamination.
The assay was performed following a 72 h incubation with the various concentrations of the tested compounds. Then, 100 µL DMEM without phenol red with 20 µL of the CellTiter 96®AQueous One Solution-MTS (Promega, Promega, WI, USA) was added to each well and incubated for 1 h or 3 h (PANC-1) at 37 °C. The optical densities of the samples were measured at 490 nm using a multi-plate reader (Synergy 4, BioTek, Winooski, VT, USA). […] Each individual compound was tested in triplicate in a single experiment with each experiment being performed three or four times.

| SMILES | Cells in G2/M phase, mean ± SD (K562 cells [1]; K562, 0.5 μM) [%] | PARP/Reference 89 kDa, densitometric intensity ratio (U-251 cells [3]; U-251, 4µM) | caspase-9/Reference 37-35 kDa, densitometric intensity ratio (U-251 cells [3]; U-251, 4µM) | BID/Reference 22 kDa, densitometric intensity ratio (U-251 cells [3]; U-251, 4µM) | Cathepsin b/Reference 44 kDa, densitometric intensity ratio (U-251 cells [3]; U-251, 4µM) | HIF-1α/Reference 120 kDa, densitometric intensity ratio (U-251 cells [3]; U-251, 4µM) | PARP/Reference 116 kDa, densitometric intensity ratio (U-251 cells [3]; U-251, 4µM) | caspase-9/Reference 47 kDa, densitometric intensity ratio (U-251 cells [3]; U-251, 4µM) | cdc2/Reference 34 kDa, densitometric intensity ratio (U-251 cells [3]; U-251, 4µM) | cyclin E1/Reference 48 kDa, densitometric intensity ratio (U-251 cells [3]; U-251, 4µM) | p21/Reference 21 kDa, densitometric intensity ratio (U-251 cells [3]; U-251, 4µM) | p53/Reference 53 kDa, densitometric intensity ratio (U-251 cells [3]; U-251, 4µM) | Cathepsin b/Reference 27 kDa, densitometric intensity ratio (U-251 cells [3]; U-251, 4µM) | Cathepsin b/Reference 22 kDa, densitometric intensity ratio (U-251 cells [3]; U-251, 4µM) | HIF-1α protein expression (Western blot) (U-251 cells [3]; U-251, 24 h) | p53 protein levels (Western blot) (U-251 cells [3]; U-251, 24 h) | Total (early and late) apoptotic cells (K562 cells [4]) [%] | IC50 (HCT 116 p53^+/+ cells) [nM] | Selectivity index, HCT 116 p53+/+ (HCT 116 p53^+/+ cells) | also measured |
| --- | --- | --- | --- | --- | --- | --- | --- | --- | --- | --- | --- | --- | --- | --- | --- | --- | --- | --- | --- | --- |
| COc1ccccc1/C=C/c1nc(OS(=O)(=O)c2ccc3c(c2)OCO3)c2ccccc2n1 [BS1, 2-((E)-2-(2-methoxyphenyl)ethenyl)quinazolin-4-yl 1,3-benzodioxole-5-sulfonate] | 37.20 | 1.044 | 1.485 | 0.675 | 2.467 | 0.550 | 0.871 | 1.167 | 1.986 | 0.576 | 1.932 | 1.357 | 2.726 | 2.940 | significant decrease | slight increase | 31.99 | 880 ± 86 | 14.25 | Cells in G2/M phase, mean ± SD (K562 cells [1]; K562, 0.35 µM): 43.46%; Cells in G2/M phase, mean ± SD (U-251 cells [2]; U-251, 4 µM): 85.40%; Cells in G0/G1 phase, mean ± SD (U-251 cells [2]; U-251, 6 μM): 1.52%; Cells in G2/M phase, mean ± SD (U-251 cells [2]; U-251, 6 μM): 90.68%; Cells in S phase, mean ± SD (U-251 cells [2]; U-251, 6 μM): 1.52%; Cleavage product of caspase-9 (Western blot) (U-251 cells [3]; U-251, 4 µM): approximately three-fold increase |
| COc1ccccc1/C=C/c1nc(OS(=O)(=O)c2ccc(C)cc2)c2ccccc2n1 [BS4, 2-((E)-2-(2-methoxyphenyl)ethenyl)quinazolin-4-yl 4-methylbenzenesulfonate] | 58.73 |  |  |  |  |  |  |  |  |  |  |  |  |  | significant decrease | statistically significant increase | 26.51 | 1570 ± 357 | 15.95 | Cells in G0/G1 phase, mean ± SD (K562 cells [1]; K562, 0.5 μM): 21.80%; Cells in S phase, mean ± SD (K562 cells [1]; K562, 0.5 μM): 18.32%; Increase in the fraction of cells in the G2/M phase compared to the control (U-251 cells [2]; U-251, 4 µM): ~23.1%; Increase in the fraction of cells in the G2/M phase compared to the control (U-251 cells [2]; U-251, 6 μM): about 40.92%; Cleavage product of caspase-9 (Western blot) (U-251 cells [3]; U-251, 6 μM): approximately three-fold increase; p21 protein expression (Western blot) (U-251 cells [3]; U-251, 24 h): more than two-fold increase |
| COc1ccccc1/C=C/c1nc(OS(=O)(=O)c2cc3c(cc2Br)OCO3)c2ccccc2n1 [BS2, 2-((E)-2-(2-methoxyphenyl)ethenyl)quinazolin-4-yl 6-bromo-1,3-benzodioxole-5-sulfonate] |  | 0.763 | 1.071 | 0.701 | 1.805 | 0.587 | 0.953 | 1.007 | 2.272 | 0.465 | 2.205 | 1.698 | 2.625 | 2.893 |  |  |  | 1200 ± 132 | 13.06 | PARP/Reference 89 kDa, densitometric intensity ratio (U-251 cells [3]; U-251, 6µM): 0.698; caspase-9/Reference 37-35 kDa, densitometric intensity ratio (U-251 cells [3]; U-251, 6µM): 1.188; BID/Reference 22 kDa, densitometric intensity ratio (U-251 cells [3]; U-251, 6µM): 1.227; Cathepsin b/Reference 44 kDa, densitometric intensity ratio (U-251 cells [3]; U-251, 6µM): 2.641; HIF-1α/Reference 120 kDa, densitometric intensity ratio (U-251 cells [3]; U-251, 6µM): 0.661; PARP/Reference 116 kDa, densitometric intensity ratio (U-251 cells [3]; U-251, 6µM): 0.940; caspase-9/Reference 47 kDa, densitometric intensity ratio (U-251 cells [3]; U-251, 6µM): 1.035; cdc2/Reference 34 kDa, densitometric intensity ratio (U-251 cells [3]; U-251, 6µM): 2.282; cyclin E1/Reference 48 kDa, densitometric intensity ratio (U-251 cells [3]; U-251, 6µM): 0.392; p21/Reference 21 kDa, densitometric intensity ratio (U-251 cells [3]; U-251, 6µM): 2.783; p53/Reference 53 kDa, densitometric intensity ratio (U-251 cells [3]; U-251, 6µM): 1.448; Cathepsin b/Reference 27 kDa, densitometric intensity ratio (U-251 cells [3]; U-251, 6µM): 3.172; Cathepsin b/Reference 22 kDa, densitometric intensity ratio (U-251 cells [3]; U-251, 6µM): 3.717 |
